Results as given in patent US8017782B2, “4-phenyl-5-oxo-1,4,5,6,7,8-hexahydroquinoline derivatives as medicaments for the treatment of infertility” (N.V. Organon, priority 2005, dated 2011).

These compounds were tested against T1, human FSH receptor (Homo sapiens, UniProt P23945) (assay: Agonistic activity at the human FSH receptor expressed in CHO cells (CRE-luciferase reporter)). Details: CHO cells stably transfected with human FSH receptor and CRE/luciferase reporter; tested 0.1 nM to 10 μM; read-out: EC50 (concentration of test compound causing half-maximal (50%) luciferase stimulation).
T1 construct: expressed in transfected cells; host or cells: Chinese Hamster Ovary (CHO) cells
T1 sequence (P23945 18-695): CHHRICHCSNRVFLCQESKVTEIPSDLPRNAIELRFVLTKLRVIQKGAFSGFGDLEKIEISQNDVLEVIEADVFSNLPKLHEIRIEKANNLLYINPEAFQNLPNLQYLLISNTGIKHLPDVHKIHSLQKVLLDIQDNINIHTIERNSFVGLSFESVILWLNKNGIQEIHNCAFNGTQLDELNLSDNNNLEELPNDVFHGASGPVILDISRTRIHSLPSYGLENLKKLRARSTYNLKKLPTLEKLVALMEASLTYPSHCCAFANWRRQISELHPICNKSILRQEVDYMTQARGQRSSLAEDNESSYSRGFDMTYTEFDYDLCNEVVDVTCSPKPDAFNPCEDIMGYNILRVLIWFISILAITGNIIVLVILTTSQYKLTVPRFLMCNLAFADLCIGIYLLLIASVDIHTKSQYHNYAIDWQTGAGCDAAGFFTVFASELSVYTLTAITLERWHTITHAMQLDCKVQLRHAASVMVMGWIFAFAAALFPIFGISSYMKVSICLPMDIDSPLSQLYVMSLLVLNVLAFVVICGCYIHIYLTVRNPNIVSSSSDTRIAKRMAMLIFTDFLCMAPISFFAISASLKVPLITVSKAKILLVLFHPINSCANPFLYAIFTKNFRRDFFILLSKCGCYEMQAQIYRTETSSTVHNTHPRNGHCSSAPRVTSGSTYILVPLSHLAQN
Format: cell-based
Experimental: Agonistic Activity of Compounds at the Human FSH Receptor Expressed in CHO Cells
Agonist activity of the compounds at the human FSH receptor was tested in Chinese Hamster Ovary (CHO) cells stably transfected with the human FSH receptor and cotransfected with a cAMP responsive element (CRE)/promotor directing the expression of a firefly luciferase reporter gene. Binding of the compound to the Gs-coupled FSH receptor will result in an increase of cAMP, which in turn will induce an increased transactivation of the luciferase reporter construct. The luciferase activity was quantified using a luminescence counter. The compounds were tested in the concentration range of 0.1 nM to 10 μM. This assay was used to determine the EC50 (concentration of test compound causing half-maximal (50%) luciferase stimulation) and efficacy of the compounds compared to recombinant human FSH. For this, the software program XLfit (Excel version 2.0, built 30, ID Business Solutions Limited) was used.

EC50, < 0.01 µM:
CCCC1CC(=O)C2=C(C1)NC(C)=C(C#N)C2c1cc(Br)c(OCC=CCNC(=O)C(C)C)c(OCC)c1 (centres unmarked) [Example 2, N-{4-[2-Bromo-4-(3-cyano-2-methyl-5-oxo-7-propyl-1,4,5,6,7,8-hexahydro-quinolin-4-yl)-6-ethoxy-phenoxy]-but-2-enyl}-isobutyramide]
CCCC1CC(=O)C2=C(C1)NC(C)=C(C#N)C2c1cc(Br)c(OCC=CCNC(=O)C2CC2)c(OCC)c1 (centres unmarked) [Example 3, Cyclopropanecarboxylic acid {4-[2-bromo-4-(3-cyano-2-methyl-5-oxo-7-propyl-1,4,5,6,7,8-hexahydro-quinolin-4-yl)-6-ethoxy-phenoxy]-but-2-enyl}-amide]
CCCC1CC(=O)C2=C(C1)NC(C)=C(C#N)C2c1cc(Br)c(OCC=CCNC(=O)COC)c(OCC)c1 (centres unmarked) [Example 5, N-{4-[2-Bromo-4-(3-cyano-2-methyl-5-oxo-7-propyl-1,4,5,6,7,8-hexahydro-quinolin-4-yl)-6-ethoxy-phenoxy]-but-2-enyl}-2-methoxy-acetamide]
CCCC1CC(=O)C2=C(C1)NC(C)=C(C#N)C2c1cc(Br)c(OCC=CCNC(=O)OCC)c(OCC)c1 (centres unmarked) [Example 6, {4-[2-Bromo-4-(3-cyano-2-methyl-5-oxo-7-propyl-1,4,5,6,7,8-hexahydro-quinolin-4-yl)-6-ethoxy-phenoxy]-but-2-enyl}-carbamic acid ethyl ester]
CCCC1CC(=O)C2=C(C1)NC(C)=C(C#N)C2c1cc(Br)c(OCC=CC(=O)NCc2ccccn2)c(OCC)c1 (centres unmarked) [Example 12, 4-[2-Bromo-4-(3-cyano-2-methyl-5-oxo-7-propyl-1,4,5,6,7,8-hexahydro-quinolin-4-yl)-6-ethoxy-phenoxy]-but-2-enoic acid (pyridin-2-ylmethyl)-amide]
CCCC1CC(=O)C2=C(C1)NC(C)=C(C#N)C2c1cc(Br)c(OCCCCNC(=O)C(C)C)c(OCC)c1 (centres unmarked) [Example 13, N-{4-[2-Bromo-4-(3-cyano-2-methyl-5-oxo-7-propyl-1,4,5,6,7,8-hexahydro-quinolin-4-yl)-6-ethoxy-phenoxy]-butyl}-isobutyramide]
CCCC1CC(=O)C2=C(C1)NC(C)=C(C#N)C2c1cc(Br)c(OCCCCCNC(=O)COC)c(OCC)c1 (centres unmarked) [Example 17, N-{5-[2-Bromo-4-(3-cyano-2-methyl-5-oxo-7-propyl-1,4,5,6,7,8-hexahydro-quinolin-4-yl)-6-ethoxy-phenoxy]-pentyl}-2-methoxy-acetamide]
CCCC1CC(=O)C2=C(C1)NC(C)=C(C#N)C2c1cc(Br)c(OCCCCCCNS(=O)(=O)C(C)C)c(OCC)c1 (centres unmarked) [Example 20, Propane-2-sulfonic acid {6-[2-bromo-4-(3-cyano-2-methyl-5-oxo-7-propyl-1,4,5,6,7,8-hexahydro-quinolin-4-yl)-6-ethoxy-phenoxy]-hexyl}-amide]
CCCC1CC(=O)C2=C(C1)NC(C)=C(C#N)C2c1cc(Br)c(OCCOCCNC(=O)C2CC2)c(OCC)c1 (centres unmarked) [Example 22, Cyclopropanecarboxylic acid (2-{2-[2-bromo-4-(3-cyano-2-methyl-5-oxo-7-propyl-1,4,5,6,7,8-hexahydro-quinolin-4-yl)-6-ethoxy-phenoxy]-ethoxy}-ethyl)-amide]
CCCC1CC(=O)C2=C(C1)NC(C)=C(C#N)C2c1cc(Br)c(OCCOCCO)c(S(=O)(=O)N(C)C)c1 (centres unmarked) [Example 23, 3-Bromo-5-(3-cyano-2-methyl-5-oxo-7-propyl-1,4,5,6,7,8-hexahydro-quinolin-4-yl)-2-[2-(2-hydroxy-ethoxy)-ethoxy]-N,N-dimethyl-benzenesulfonamide]
CCCC1CC(=O)C2=C(C1)NC(C)=C(C#N)C2c1cc(Br)c(OCCOCCO)c(OC(C)C)c1 (centres unmarked) [Example 24, 4-{3-Bromo-4-[2-(2-hydroxy-ethoxy)-ethoxy]-5-isopropoxy-phenyl}-2-methyl-5-oxo-7-propyl-1,4,5,6,7,8-hexahydro-quinoline-3-carbonitrile]
CCCC1CC(=O)C2=C(C1)NC(C)=C(C#N)C2c1cc(Br)c(OCCO)c(S(=O)(=O)N(C)C)c1 (centres unmarked) [Example 26, 3-Bromo-5-(3-cyano-2-methyl-5-oxo-7-propyl-1,4,5,6,7,8-hexahydro-quinolin-4-yl)-2-(2-hydroxy-ethoxy)-N,N-dimethyl-benzenesulfonamide]
CCCC1CC(=O)C2=C(C1)NC(C)=C(C#N)C2c1cc(Br)c(OCC=CCO)c(OCC)c1 (centres unmarked) [Example 28, 4-[3-Bromo-5-ethoxy-4-(4-hydroxy-but-2-enyloxy)-phenyl]-2-methyl-5-oxo-7-propyl-1,4,5,6,7,8-hexahydro-quinoline-3-carbonitrile]
CCCC1CC(=O)C2=C(C1)NC(C)=C(C#N)C2c1cc(Br)c(OCCOC)c(S(=O)(=O)N(C)C)c1 (centres unmarked) [Example 29, 3-Bromo-5-(3-cyano-2-methyl-5-oxo-7-propyl-1,4,5,6,7,8-hexahydro-quinolin-4-yl)-2-(2-methoxy-ethoxy)-N,N-dimethyl-benzenesulfonamide]
CCCC1CC(=O)C2=C(C1)NC(C)=C(C#N)C2c1cc(Br)c(OCCOCCOC)c(S(=O)(=O)N(C)C)c1 (centres unmarked) [Example 30, 3-Bromo-5-(3-cyano-2-methyl-5-oxo-7-propyl-1,4,5,6,7,8-hexahydro-quinolin-4-yl)-2-[2-(2-methoxy-ethoxy)-ethoxy]-N,N-dimethyl-benzenesulfonamide]
CCCC1CC(=O)C2=C(C1)NC(C)=C(C#N)C2c1cc(Br)c(NCCOC)c(S(=O)(=O)N2CCOCC2)c1 (centres unmarked) [Example 31, 4-[3-Bromo-4-(2-methoxy-ethylamino)-5-(morpholine-4-sulfonyl)-phenyl]-2-methyl-5-oxo-7-propyl-1,4,5,6,7,8-hexahydro-quinoline-3-carbonitrile]
CCCC1CC(=O)C2=C(C1)NC(C)=C(C#N)C2c1cc(Br)c(NCCOC)c(S(=O)(=O)N2CCCC2)c1 (centres unmarked) [Example 32, 4-[3-Bromo-4-(2-methoxy-ethylamino)-5-(pyrrolidine-1-sulfonyl)-phenyl]-2-methyl-5-oxo-7-propyl-1,4,5,6,7,8-hexahydro-quinoline-3-carbonitrile]
